Test results reported in patent US9108944B2, “Androgen receptor modulators and uses thereof” (ARAGON PHARMACEUTICALS, INC., priority 2010, dated 2015).

Key:
AR-VP16 [1] = target: T1, AR-VP16 (Homo sapiens, UniProt P10275); experiment: AR-VP16 DNA Binding Assay, agonist mode (HepG2 cells); format: cell-based; conditions: Emax >20x DMSO control = agonist
T1 sequence (P10275 560-920 limits assumed): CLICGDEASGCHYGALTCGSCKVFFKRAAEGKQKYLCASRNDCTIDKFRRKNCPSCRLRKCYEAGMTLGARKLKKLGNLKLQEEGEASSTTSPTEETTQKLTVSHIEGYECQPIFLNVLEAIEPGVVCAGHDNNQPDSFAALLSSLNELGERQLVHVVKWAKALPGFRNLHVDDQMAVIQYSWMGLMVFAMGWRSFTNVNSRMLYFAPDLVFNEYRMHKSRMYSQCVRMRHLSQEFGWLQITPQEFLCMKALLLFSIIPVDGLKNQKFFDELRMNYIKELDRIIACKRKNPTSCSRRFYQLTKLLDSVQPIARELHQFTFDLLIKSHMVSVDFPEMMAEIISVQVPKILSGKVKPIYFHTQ

AR-VP16 [2] = target: T1, AR-VP16; experiment: AR-VP16 DNA Binding Assay, antagonist mode (HepG2 cells, 0.1 nM R1881); format: cell-based
Outline: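 Transfected HepG2 cells expressing AR-VP16 received serially diluted compound in charcoal-stripped-serum RPMI the day after transfection, with 0.1 nM R1881 (final) added only for antagonist testing. After 48 h, cells were lysed for measurement.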

Cc1cc(N2C(=O)C3(CCC3)N(c3ccc(-c4ccco4)cc3)C2=S)cnc1C#N [Compound 116, 5-(5-(4-(Furan-2-yl)phenyl)-8-oxo-6-thioxo-5,7-diazaspiro[3.4]octan-7-yl)-3-methylpicolinonitrile]
ARVP16 DNA Binding Assay (Agonist mode): Agonist? (AR-VP16 [1]): No (Agonist defined as a compound whose Emax in the ARVP16 DNA Binding Assay (Agonist mode) is >20x DMSO control)
IC50 (AR-VP16 [2]): < 1000 nM

N#Cc1ncc(N2C(=O)C3(CCC3)N(c3ccc(OCCc4cccc5ccccc45)c(F)c3)C2=S)cc1C(F)(F)F [Compound 140, 5-(5-(3-Fluoro-4-(2-(naphthalen-1-yl)ethoxy)phenyl)-8-oxo-6-thioxo-5,7-diazaspiro[3.4]octan-7-yl)-3-(trifluoromethyl)picolinonitrile]
ARVP16 DNA Binding Assay (Agonist mode): Agonist? (AR-VP16 [1]): No (Agonist defined as a compound whose Emax in the ARVP16 DNA Binding Assay (Agonist mode) is >20x DMSO control)
IC50 (AR-VP16 [2]): > 1000 nM

N#Cc1ncc(N2C(=O)C3(CCC3)N(c3ccc(F)c(OCc4ccccc4)c3)C2=S)cc1C(F)(F)F [Compound 161, 5-(5-(3-(Benzyloxy)-4-fluorophenyl)-8-oxo-6-thioxo-5,7-diazaspiro[3.4]octan-7-yl)-3-(trifluoromethyl)picolinonitrile]
ARVP16 DNA Binding Assay (Agonist mode): Agonist? (AR-VP16 [1]): No (Agonist defined as a compound whose Emax in the ARVP16 DNA Binding Assay (Agonist mode) is >20x DMSO control)
IC50 (AR-VP16 [2]): > 1000 nM

COc1ccc(N2C(=S)N(c3cnc(C#N)c(C(F)(F)F)c3)C(=O)C23CCC3)cc1F [Compound 203, 5-(5-(3-Fluoro-4-methoxyphenyl)-8-oxo-6-thioxo-5,7-diazaspiro[3.4]octan-7-yl)-3-(trifluoromethyl)picolinonitrile]
ARVP16 DNA Binding Assay (Agonist mode): Agonist? (AR-VP16 [1]): No (Agonist defined as a compound whose Emax in the ARVP16 DNA Binding Assay (Agonist mode) is >20x DMSO control)
IC50 (AR-VP16 [2]): < 1000 nM

N#Cc1ncc(N2C(=O)C3(CCC3)N(c3ccc(CCCO)cc3)C2=S)cc1C(F)(F)F [Compound 86, 5-(5-(4-(3-hydroxypropyl)phenyl)-8-oxo-6-thioxo-5,7-diazaspiro[3.4]octan-7-yl)-3-(trifluoromethyl)picolinonitrile]
ARVP16 DNA Binding Assay (Agonist mode): Agonist? (AR-VP16 [1]): No (Agonist defined as a compound whose Emax in the ARVP16 DNA Binding Assay (Agonist mode) is >20x DMSO control)
IC50 (AR-VP16 [2]): < 1000 nM

N#Cc1ncc(N2C(=O)C3(CCC3)N(c3ccc(C(=O)NCCCN4CCCC4)c(F)c3)C2=S)cc1C(F)(F)F [Compound 237, 4-(7-(6-Cyano-5-(trifluoromethyl)pyridin-3-yl)-8-oxo-6-thioxo-5,7-diazaspiro[3.4]octan-5-yl)-2-fluoro-N-(3-(pyrrolidin-1-yl)propyl)benzamide]
ARVP16 DNA Binding Assay (Agonist mode): Agonist? (AR-VP16 [1]): No (Agonist defined as a compound whose Emax in the ARVP16 DNA Binding Assay (Agonist mode) is >20x DMSO control)
IC50 (AR-VP16 [2]): < 1000 nM

N#Cc1ncc(N2C(=O)C3(CCC3)N(c3ccc(C(=O)Nc4ccccc4)c(F)c3)C2=S)cc1C(F)(F)F [Compound 255, 4-(7-(6-Cyano-5-(trifluoromethyl)pyridin-3-yl)-8-oxo-6-thioxo-5,7-diazaspiro[3.4]octan-5-yl)-2-fluoro-N-phenylbenzamide]
ARVP16 DNA Binding Assay (Agonist mode): Agonist? (AR-VP16 [1]): No (Agonist defined as a compound whose Emax in the ARVP16 DNA Binding Assay (Agonist mode) is >20x DMSO control)
IC50 (AR-VP16 [2]): < 1000 nM

COCCCCOc1ccc(N2C(=S)N(c3cnc(C#N)c(C(F)(F)F)c3)C(=O)C23CCC3)cc1F [Compound 133, 5-(5-(3-Fluoro-4-(4-methoxybutoxy)phenyl)-8-oxo-6-thioxo-5,7-diazaspiro[3.4]octan-7-yl)-3-(trifluoromethyl)picolinonitrile]
ARVP16 DNA Binding Assay (Agonist mode): Agonist? (AR-VP16 [1]): No (Agonist defined as a compound whose Emax in the ARVP16 DNA Binding Assay (Agonist mode) is >20x DMSO control)
IC50 (AR-VP16 [2]): < 1000 nM

Cc1ccc(N2C(=S)N(c3cnc(C#N)c(C(F)(F)F)c3)C(=O)C23CCC3)c(F)c1 [Compound 50, 5-(5-(2-Fluoro-4-methylphenyl)-8-oxo-6-thioxo-5,7-diazaspiro[3.4]octan-7-yl)-3-(trifluoromethyl)picolinonitrile]
ARVP16 DNA Binding Assay (Agonist mode): Agonist? (AR-VP16 [1]): No (Agonist defined as a compound whose Emax in the ARVP16 DNA Binding Assay (Agonist mode) is >20x DMSO control)
IC50 (AR-VP16 [2]): < 1000 nM

CC(=O)N1CCC(Oc2ccc(N3C(=S)N(c4cnc(C#N)c(C)c4)C(=O)C34CCC4)cc2)CC1 [Compound 215, 5-(5-(4-((1-acetylpiperidin-4-yl)oxy)phenyl)-8-oxo-6-thioxo-5,7-diazaspiro[3.4]octan-7-yl)-3-methylpicolinonitrile]
ARVP16 DNA Binding Assay (Agonist mode): Agonist? (AR-VP16 [1]): Yes (Agonist defined as a compound whose Emax in the ARVP16 DNA Binding Assay (Agonist mode) is >20x DMSO control)
IC50 (AR-VP16 [2]): < 1000 nM

Cc1cc(N2C(=O)C3(CCC3)N(c3ccc(-c4cncc(F)c4)cc3)C2=S)cnc1C#N [Compound 105, 5-(5-(4-(5-Fluoropyridin-3-yl)phenyl)-8-oxo-6-thioxo-5,7-diazaspiro[3.4]octan-7-yl)-3-methylpicolinonitrile]
ARVP16 DNA Binding Assay (Agonist mode): Agonist? (AR-VP16 [1]): No (Agonist defined as a compound whose Emax in the ARVP16 DNA Binding Assay (Agonist mode) is >20x DMSO control)
IC50 (AR-VP16 [2]): < 1000 nM

Cc1cc(N2C(=O)C(C)(C)N(c3ccc(O)cc3)C2=S)cnc1C#N [Compound 101, 5-(3-(4-Hydroxyphenyl)-4,4-dimethyl-5-oxo-2-thioxoimidazolidin-1-yl)-3-methylpicolinonitrile]
ARVP16 DNA Binding Assay (Agonist mode): Agonist? (AR-VP16 [1]): No (Agonist defined as a compound whose Emax in the ARVP16 DNA Binding Assay (Agonist mode) is >20x DMSO control)
IC50 (AR-VP16 [2]): > 1000 nM

N#Cc1ncc(N2C(=O)C3(CCC3)N(c3ccc(C(F)(F)F)cc3)C2=S)cc1C(F)(F)F [Compound 46, 5-(8-Oxo-6-thioxo-5-(4-(trifluoromethyl)phenyl)-5,7-diazaspiro[3.4]octan-7-yl)-3-(trifluoromethyl)picolinonitrile]
ARVP16 DNA Binding Assay (Agonist mode): Agonist? (AR-VP16 [1]): No (Agonist defined as a compound whose Emax in the ARVP16 DNA Binding Assay (Agonist mode) is >20x DMSO control)
IC50 (AR-VP16 [2]): < 1000 nM

N#Cc1ncc(N2C(=O)C3(CCC3)N(c3ccc(OCCN4CCSCC4)c(F)c3)C2=S)cc1C(F)(F)F [Compound 175, 5-(5-(3-Fluoro-4-(2-thiomorpholinoethoxy)phenyl)-8-oxo-6-thioxo-5,7-diazaspiro[3.4]octan-7-yl)-3-(trifluoromethyl)picolinonitrile]
ARVP16 DNA Binding Assay (Agonist mode): Agonist? (AR-VP16 [1]): No (Agonist defined as a compound whose Emax in the ARVP16 DNA Binding Assay (Agonist mode) is >20x DMSO control)
IC50 (AR-VP16 [2]): < 1000 nM

COC(=O)CCCc1ccc(N2C(=S)N(c3cnc(C#N)c(C(F)(F)F)c3)C(=O)C23CCC3)cc1 [Compound 122, Methyl 4-(4-(7-(6-cyano-5-(trifluoromethyl)pyridin-3-yl)-8-oxo-6-thioxo-5,7-diazaspiro[3.4]octan-5-yl)phenyl)butanoate]
ARVP16 DNA Binding Assay (Agonist mode): Agonist? (AR-VP16 [1]): No (Agonist defined as a compound whose Emax in the ARVP16 DNA Binding Assay (Agonist mode) is >20x DMSO control)
IC50 (AR-VP16 [2]): > 1000 nM

N#Cc1ncc(N2C(=O)C3(CCC3)N(c3ccc(F)c(C(=O)NCCN4CCOCC4)c3)C2=S)cc1C(F)(F)F [Compound 253, 5-(7-(6-Cyano-5-(trifluoromethyl)pyridin-3-yl)-8-oxo-6-thioxo-5,7-diazaspiro[3.4]octan-5-yl)-2-fluoro-N-(2-morpholinoethyl)benzamide]
ARVP16 DNA Binding Assay (Agonist mode): Agonist? (AR-VP16 [1]): No (Agonist defined as a compound whose Emax in the ARVP16 DNA Binding Assay (Agonist mode) is >20x DMSO control)
IC50 (AR-VP16 [2]): > 1000 nM

CN1CCN(c2ccc(N3C(=S)N(c4cnc(C#N)c(C(F)(F)F)c4)C(=O)C34CCC4)cc2)CC1 [Compound 90, 5-(5-(4-(4-Methylpiperazin-1-yl)phenyl)-8-oxo-6-thioxo-5,7-diazaspiro[3.4]octan-7-yl)-3-(trifluoromethyl)picolinonitrile]
ARVP16 DNA Binding Assay (Agonist mode): Agonist? (AR-VP16 [1]): No (Agonist defined as a compound whose Emax in the ARVP16 DNA Binding Assay (Agonist mode) is >20x DMSO control)
IC50 (AR-VP16 [2]): > 1000 nM

N#Cc1ncc(N2C(=O)C3(CCC3)N(c3ccc(OC4CCOCC4)cc3)C2=S)cc1C(F)(F)F [Compound 198, 5-(8-Oxo-5-(4-((tetrahydro-2H-pyran-4-yl)oxy)phenyl)-6-thioxo-5,7-diazaspiro[3.4]octan-7-yl)-3-(trifluoromethyl)picolinonitrile]
ARVP16 DNA Binding Assay (Agonist mode): Agonist? (AR-VP16 [1]): No (Agonist defined as a compound whose Emax in the ARVP16 DNA Binding Assay (Agonist mode) is >20x DMSO control)
IC50 (AR-VP16 [2]): < 1000 nM

N#Cc1ncc(N2C(=O)C3(CCC3)N(c3ccc(CCCC(=O)Nc4ccccc4)cc3)C2=S)cc1C(F)(F)F [Compound 292, 4-(4-(7-(6-Cyano-5-(trifluoromethyl)pyridin-3-yl)-8-oxo-6-thioxo-5,7-diazaspiro[3.4]octan-5-yl)phenyl)-N-phenylbutanamide]
ARVP16 DNA Binding Assay (Agonist mode): Agonist? (AR-VP16 [1]): No (Agonist defined as a compound whose Emax in the ARVP16 DNA Binding Assay (Agonist mode) is >20x DMSO control)
IC50 (AR-VP16 [2]): > 1000 nM

Cc1ccc(N2C(=S)N(c3cnc(C#N)c(C(F)(F)F)c3)C(=O)C2(C)C)cc1 [Compound 33, 5-(4,4-Dimethyl-5-oxo-2-thioxo-3-(p-tolyl)imidazolidin-1-yl)-3-(trifluoromethyl)picolinonitrile]
ARVP16 DNA Binding Assay (Agonist mode): Agonist? (AR-VP16 [1]): No (Agonist defined as a compound whose Emax in the ARVP16 DNA Binding Assay (Agonist mode) is >20x DMSO control)
IC50 (AR-VP16 [2]): < 1000 nM
